Assay results: patent publication US20250333733A1, “NOVEL TARGETS AGAINST OVARIAN CANCER” (UNIVERSITY OF PUERTO RICO, priority 2022, published 2025)

Key:
OV90 = conditions: 72-hr incubation, Alamar Blue, read-out: IC50 cisplatin; cited from earlier work
SKOV3IP1 = conditions: 72-hr incubation, Alamar Blue, read-out: IC50 cisplatin; cited from earlier work
OVCAR3CIS = conditions: 72-hr incubation, Alamar Blue, read-out: IC50 cisplatin; cited from earlier work
OV90CIS = conditions: 72-hr incubation, Alamar Blue, read-out: IC50 cisplatin; cited from earlier work
A2780CP20 = conditions: 72-hr incubation, Alamar Blue, read-out: IC50 cisplatin; cited from earlier work
OVCAR3 = conditions: 72-hr incubation, Alamar Blue, read-out: IC50 cisplatin; cited from earlier work
A2780CIS = conditions: 72-hr incubation, Alamar Blue, read-out: IC50 cisplatin; cited from earlier work
OVCAR3CIS cells [1] = test: Cell viability, Alamar blue, siRNA alone or with cisplatin; format: cell-based; conditions: CIS 2.5 μM, NC-siRNA-transfected OVCAR3CIS cells
Description: OVCAR3CIS cells (3.0×10^4 cells/mL) or SKOV3ip1CIS (3.0×10^4 cells/mL) were seeded into 12-well plates. […] The next day, 400 cells (OVCAR3CIS) or 1,000 cells (SKOV3ip1CIS) were seeded into 6-well plates and incubated for seven days, fixed and stained with 0.5% crystal violet in methanol. Colonies of at least 50 cells were counted using a light microscope (CKX41: Olympus, Center Valley, PA, USA) with a total magnification of 40x. For cell viability assays, OVCAR3 and OVCAR3CIS (3.0×10^4 cells/mL) or SKOV3ip1and SKOV3ip1CIS (3.5×10^4 cells/mL) were seeded into 96-well plates, and 24 hours later, siRNA transfection was performed as described above. The next day, the transfection mix was replaced with cisplatin (CIS) (2.5 uM final concentration dissolved in regular cell culture media) and after forty-eight hours, the medium was removed, and Alamar blue dye (Invitrogen, Thermo Fisher Scientific, Eugene, OR, USA) was added following the manufacturer's instructions. Optical density (OD) was measured, and percentages of cell viability were calculated after blank OD subtraction. Untreated cells were assessed as 100% cell viability.

SKOV3IP1CIS [2] = conditions: 72-hr incubation, Alamar Blue, read-out: IC50 cisplatin; cited from earlier work
CASC10 [3] = test: RT-qPCR of CASC10 expression after siRNA transfection in SKOV3ip1 cells; format: cell-based, human; conditions: SKOV3ip1 cells as printed
Description: (§1) SiRNA ON-TARGET plus SMARTpool (a mixture of 4 siRNA as a single tube) and a negative control siRNA (NC-siRNA) (Sigma-Aldrich) were used for transfection studies. CASC10, was targeted by using two siRNAs targeting different regions of the CASC10 RNA (e.g., CASC10-siRNA (1) and CASC10-siRNA (2)). OVCAR3CIS or SKOV3ip1CIS cells were seeded into 12-well plates at 3.0×10^4 cells/mL. The next day, siRNAs were mixed with HiPerfect transfection reagent (Qiagen, Valencia, CA) at a 1:2 ratio (SIRNA: HiPerfect) in serum and antibiotic-free Opti-MEM medium (Gibco) and added to the cells. After twenty-four hours the media was replaced by regular culture media, and cells were cultured and used for further experiments. To assess siRNA transfection efficiency, cells were collected 24 hours after siRNA transfection.
(§2) A custom-made 384-well plate containing pre-designed forward and reverse primers was purchased from Bio-Rad (CA, USA). Total RNA was isolated from OVCAR3 and OVCAR3CIS cells using the GenElute Mammalian Total RNA Mini Kit (Millipore-Sigma, MO, USA) following the manufacturer's instructions. […] Fold-changes and cycle threshold (Ct) values were calculated by the instrument's internal software relative to OVCAR3 cells and normalized to B-actin along with controls for gDNA, PCR reaction, RT reaction, and RNA quality.

OVCAR3CIS cells [4] = test: Matrigel transwell invasion assay; format: cell-based; conditions: vs NC-siRNA
Description: (§3) Cell invasion was measured using the Matrigel transwell method. OVCAR3CIS (3.0×10^4 cells/mL) or SKOVip1CIS (3.5×10^4 cells/mL) were seeded into 10 cm Petri dishes and transfected with siRNAs. Twenty-four hours later, serum-free matrigel (BD Biosciences CA, USA) was added onto the upper chambers of 24-well plates and incubated at 37° C. for polymerization. Transfected cells were collected and resuspended in serum-free and re-seeded onto the Matrigel-coated chambers. Medium containing 10% FBS was added to the lower area of the wells, and the plates incubated for 48 hours at 37° C. The medium was removed, and cells that invaded through the matrigel fixed and stained using ProtocolHema 3 Stain Set (Fisher Scientific MI, USA). Invaded cells were microscopically counted using a digital camera to capture images at a 20× resolution. The percentage of cell invasion was calculated using the NC-SIRNA condition as 100% cell invasion.

OVCAR3CIS cells [5] = test: Colony formation assay after siRNA transfection; format: cell-based; conditions: single siRNA, vs NC-siRNA
Description: as §1
OVCAR3CIS cells (3.0×10^4 cells/mL) or SKOV3ip1CIS (3.0×10^4 cells/mL) were seeded into 12-well plates. Twenty-four hours later, cells were transfected with 100 nM (final concentration) of each siRNA. […] Colonies of at least 50 cells were counted using a light microscope (CKX41: Olympus, Center Valley, PA, USA) with a total magnification of 40x. […] Optical density (OD) was measured, and percentages of cell viability were calculated after blank OD subtraction. Untreated cells were assessed as 100% cell viability. […]

SKOV3IP1CIS [6] = test: Matrigel transwell invasion assay; format: cell-based, human
Description: as §3

SKOV3ip1CIS cells = test: Colony formation assay after siRNA transfection; format: cell-based, human; conditions: SKOV3ip1CIS (FIG. 8B)
Description: as §1
OVCAR3CIS cells (3.0×10^4 cells/mL) or SKOV3ip1CIS (3.0×10^4 cells/mL) were seeded into 12-well plates. Twenty-four hours later, cells were transfected with 100 nM (final concentration) of each siRNA. […] Colonies of at least 50 cells were counted using a light microscope (CKX41: Olympus, Center Valley, PA, USA) with a total magnification of 40x. […] Optical density (OD) was measured, and percentages of cell viability were calculated after blank OD subtraction. Untreated cells were assessed as 100% cell viability.

CASC10 [7] = test: RT-qPCR of CASC10 expression after siRNA transfection in OVCAR3CIS cells; format: cell-based; conditions: vs NC-siRNA
Description: as §1, §2

Compound	IC50 (OV90) [µM]	IC50 (SKOV3IP1) [µM]	IC50 (OVCAR3CIS) [µM]	IC50 (OV90CIS) [µM]	IC50 (A2780CP20) [µM]	IC50 (OVCAR3) [µM]	IC50 (A2780CIS) [µM]	cell viability (OVCAR3CIS cells [1])	IC50 (SKOV3IP1CIS [2]) [µM]	decrease of CASC10 relative expression (CASC10 [3]) [%]	reduction of invasiveness (OVCAR3CIS cells [4]) [%]	reduction in the number of colonies (OVCAR3CIS cells [5]) [%]	reduction of invasion ability (SKOV3IP1CIS [6]) [%]	reduction in the number of colonies (SKOV3ip1CIS cells) [%]	decrease of CASC10 expression (CASC10 [7]) [%]
N.N.[Cl][Pt][Cl] [cisplatin]	3.5	3.9	7.5	7.8	20 to 30	2.8	4.3	reduced the cell viability	7.3	–	–	–	–	–	–
CASC10-siRNA (1): siRNA targeting CASC10 RNA, SEQ ID NO 1 and 2: 5′ GCUAUCUGCUUGAUCCCUU(dT)(dT) 3′ / 5′ AAGGGAUCAAGCAGAUAGO(dT)(dT) 3′ (chain 1 GCUAUCUGCUUGAUCCCUUNN; chain 2 AAGGGAUCAAGCAGAUAGCNN; 3' dTdT overhangs, chemistry not fully specified)	–	–	–	–	–	–	–	–	–	70	42	42	36	81	47
